This is an account of results in DBAASP.

Among the test systems are Escherichia coli; Pseudomonas aeruginosa; Staphylococcus aureus.
Common to all, as to test: ≥ marks a high value that may be exact or a test limit, other limits are often not marked, values filed in µg/mL are converted to µM
In experiment [1] the test system is Staphylococcus aureus ATCC 43300.
For experiment [2], the system named is Candida albicans ATCC 90028.
The subject of experiment [3] is Escherichia coli ATCC 25922.
The subject of experiment [4] is Pseudomonas aeruginosa ATCC 27853.
Experiment [5] has as its system Staphylococcus aureus ATCC 29213.
The test system of experiment [6] is Staphylococcus epidermidis ATCC 12228.

Converted amounts (≈) assume the structure as drawn. “And” between values parts separate entries of the source, which are not always exact repeats. Equal values may be shown once.

`CC(C)C[C@H](NC(=O)[C@H](CCCCN)NC(=O)[C@H](C)N)C(=O)N[C@@H](Cc1c[nH]c2ccccc12)C(=O)N[C@@H](CC(C)C)C(=O)N[C@@H](CCCCN)C(=O)N[C@@H](C)C(=O)N[C@@H](C)C(=O)N[C@@H](CCCCN)C(=O)N[C@@H](CC(C)C)C(=O)N[C@@H](Cc1c[nH]c2ccccc12)C(=O)N[C@@H](CC(C)C)C(=O)N[C@@H](CCCCN)C(=O)N[C@@H](C)C(N)=O` [AKLWLKAAKLWLKA]: the MIC (commonly the lowest concentration that inhibits growth of the organism) in experiment [1] amounted to 16 µM (≈ 26.2 µg/mL). In other words, the double-digit micromolar range.

As to `CC[C@H](C)[C@H](NC(=O)[C@H](CCCN=C(N)N)NC(=O)[C@H](CCC(N)=O)NC(=O)[C@@H](NC(=O)[C@@H](NC(=O)[C@H](CCCN=C(N)N)NC(=O)[C@H](C)N)[C@@H](C)CC)C(C)C)C(=O)N[C@@H](CCCCN)C(=O)N[C@@H](CC(=O)O)C(=O)N[C@@H](Cc1ccccc1)C(=O)N[C@@H](CC(C)C)C(=O)N[C@@H](CCCN=C(N)N)C(=O)O` [ARIVQRIKDFLR], the MIC in experiment [2] was not below 40 µM; in experiment [3], 40 µM (≈ 60.6 µg/mL); in experiment [4] it was 40 µM (≈ 60.6 µg/mL); in experiment [5], 40 µM (≈ 60.6 µg/mL).

`CC(C)C[C@H](NC(=O)[C@H](Cc1ccc(O)cc1)NC(=O)[C@H](Cc1ccc(O)cc1)NC(=O)CNC(=O)[C@H](Cc1c[nH]c2ccccc12)NC(=O)[C@H](CO)NC(=O)[C@H](CO)NC(=O)[C@H](Cc1c[nH]c2ccccc12)NC(=O)[C@H](CC(C)C)NC(=O)[C@H](CCCCN)NC(=O)[C@@H](NC(=O)[C@@H](NC(=O)[C@H](CC(C)C)NC(=O)[C@@H](N)CC(=O)O)[C@@H](C)O)[C@@H](C)O)C(=O)NCC(=O)O` [DLTTKLWSSWGYYLG] returned an MIC in [6] of 25 µM (≈ 44.8 µg/mL).

Take `CC(C)C[C@H](NC(=O)[C@H](CCCCN)NC(=O)CN)C(=O)N[C@@H](Cc1c[nH]c2ccccc12)C(=O)N[C@@H](CC(C)C)C(=O)N[C@@H](CCCCN)C(=O)NCC(=O)NCC(=O)N[C@@H](CCCCN)C(=O)N[C@@H](CC(C)C)C(=O)N[C@@H](Cc1c[nH]c2ccccc12)C(=O)N[C@@H](CC(C)C)C(=O)N[C@@H](CCCCN)C(=O)NCC(=O)NCC(=O)N[C@@H](CCCCN)C(=O)N[C@@H](CC(C)C)C(=O)N[C@@H](Cc1c[nH]c2ccccc12)C(=O)N[C@@H](CC(C)C)C(=O)N[C@@H](CCCCN)C(=O)NCC(N)=O` [GKLWLKGGKLWLKGGKLWLKG]: in [1], the MIC came to 32 µM (≈ 75.7 µg/mL). That is a double-digit micromolar value.

For `CC[C@H](C)[C@H](NC(=O)[C@H](CCSC)NC(=O)[C@H](C)NC(=O)[C@@H]1CCCN1C(=O)[C@@H](NC(=O)[C@@H](NC(=O)[C@H](CCCCN)NC(=O)[C@@H](NC(=O)[C@H](CC(C)C)NC(=O)CN)[C@@H](C)CC)[C@@H](C)CC)C(C)C)C(=O)N[C@H]1CSSC[C@@H](C(=O)O)NC(=O)[C@H](CCCCN)NC(=O)[C@H](CCCCN)NC(=O)[C@H]([C@@H](C)O)NC(=O)[C@H](C(C)C)NC(=O)[C@H](C)NC1=O` [GLIKIVPAMICAVTKKC], the minimal inhibitory concentration (MIC) in experiment [3], in experiment [4] and in [5] was more than 143 µM in each case.

In the case of `CC[C@H](C)[C@H](N)C(=O)N[C@@H](CC(N)=O)C(=O)N[C@@H](Cc1c[nH]c2ccccc12)C(=O)N[C@@H](CCCCN)C(=O)N[C@@H](CCCCN)C(=O)N[C@H](C(=O)N[C@@H](Cc1ccccc1)C(=O)N[C@@H](CCC(=O)O)C(=O)N[C@@H](CCCCN)C(=O)N[C@H](C(=O)N[C@@H](CCCCN)C(=O)N[C@@H](CC(N)=O)C(=O)N[C@@H](CC(C)C)C(=O)N[C@H](C(N)=O)C(C)C)C(C)C)[C@@H](C)CC` [INWKKIFEKVKNLV], the MIC against Escherichia coli was 7.5 µM and 6.25 µM and 3.12 µM; in the experiment with Pseudomonas aeruginosa, 86.6 µM (≈ 152 µg/mL); against Staphylococcus aureus, 11.8 µM (≈ 20.7 µg/mL).

`CC[C@H](C)[C@H](N)C(=O)N[C@@H](Cc1c[nH]c2ccccc12)C(=O)N[C@@H](CCCN=C(N)N)C(=O)N[C@H](C(=O)N[C@@H](Cc1ccccc1)C(=O)N[C@@H](CCCN=C(N)N)C(=O)N[C@@H](CCCN=C(N)N)C(=O)N[C@H](C(=O)N[C@@H](Cc1ccccc1)C(=O)N[C@@H](CCCN=C(N)N)C(=O)N[C@H](C(=O)N[C@@H](Cc1ccccc1)C(=O)N[C@H](C(=O)N[C@@H](CCCN=C(N)N)C(=O)N[C@@H](Cc1ccccc1)C(N)=O)[C@@H](C)CC)[C@@H](C)CC)[C@@H](C)CC)[C@@H](C)CC` [IWRIFRRIFRIFIRF]: the MIC in experiment [3] was determined as 16 µM (≈ 34.2 µg/mL); in experiment [4] it was 16 µM (≈ 34.2 µg/mL); in experiment [5], 8 µM (≈ 17.1 µg/mL); in experiment [6], 4 µM (≈ 8.55 µg/mL).

Consider `CC(C)C[C@H](NC(=O)[C@H](CC(C)C)NC(=O)[C@H](C)NC(=O)[C@H](CCCCN)NC(=O)[C@H](C)NC(=O)[C@H](C)NC(=O)[C@H](C)NC(=O)[C@H](CC(C)C)NC(=O)[C@H](Cc1c[nH]c2ccccc12)NC(=O)[C@H](CCCCN)NC(=O)[C@H](C)NC(=O)[C@H](CC(C)C)NC(=O)[C@H](CC(C)C)NC(=O)[C@H](CCCCN)NC(=O)[C@H](CCCCN)NC(=O)[C@H](CC(C)C)NC(=O)[C@H](C)NC(=O)[C@@H](N)CCCCN)C(N)=O` [KALKKLLAKWLAAAKALL], for which the MIC against Escherichia coli came out at 6.1 µM (≈ 11.9 µg/mL); with Pseudomonas aeruginosa it was 12.2 µM (≈ 23.8 µg/mL); against Staphylococcus aureus, 1.5 µM (≈ 2.92 µg/mL).

`C[C@H](NC(=O)[C@H](C)NC(=O)[C@H](CCCCN)NC(=O)[C@H](C)NC(=O)[C@H](Cc1ccccc1)NC(=O)[C@H](Cc1c[nH]c2ccccc12)NC(=O)[C@H](CCCCN)NC(=O)[C@H](Cc1ccccc1)NC(=O)[C@H](CCCCN)NC(=O)[C@H](CCCCN)NC(=O)[C@H](C)NC(=O)[C@H](Cc1ccccc1)NC(=O)[C@@H](N)CCCCN)C(=O)N[C@@H](Cc1ccccc1)C(=O)N[C@@H](CCCCN)C(=O)N[C@@H](Cc1ccccc1)C(=O)N[C@@H](Cc1ccccc1)C(=O)N[C@@H](CCCCN)C(=O)N[C@@H](CCCCN)C(N)=O` [KFAKKFKWFAKAAFKFFKK]: the figures for the MIC against Escherichia coli and against Staphylococcus aureus were 7.23 µM (≈ 17.3 µg/mL) and 4.17 µM (≈ 10 µg/mL), respectively.

For the compound `CC(C)C[C@H](NC(=O)[C@H](C)NC(=O)[C@H](CC(C)C)NC(=O)[C@@H](N)CCCCN)C(=O)N[C@@H](CCCCN)C(=O)N[C@@H](C)C(=O)N[C@@H](C)C(=O)N[C@@H](CC(C)C)C(=O)N[C@@H](CCCCN)C(=O)N[C@@H](C)C(=O)N[C@@H](Cc1c[nH]c2ccccc12)C(=O)N[C@@H](CCCCN)C(=O)N[C@@H](C)C(=O)N[C@@H](C)C(=O)N[C@@H](C)C(=O)N[C@@H](CCCCN)C(=O)N[C@@H](CC(C)C)C(=O)N[C@@H](C)C(N)=O` [KLALKAALKAWKAAAKLA], the MIC with Escherichia coli was 7.78 µM (≈ 14.5 µg/mL); in the experiment with Pseudomonas aeruginosa, 45 µM (≈ 83.9 µg/mL); against Staphylococcus aureus, 45 µM (≈ 83.9 µg/mL).

Consider `CC[C@H](C)[C@H](NC(=O)[C@H](C)NC(=O)[C@H](CCC(N)=O)NC(=O)[C@@H](NC(=O)[C@@H](NC(=O)[C@H](CCCN=C(N)N)NC(=O)[C@@H](N)CCCCN)[C@@H](C)CC)C(C)C)C(=O)N[C@@H](CCCCN)C(=O)N[C@@H](CC(=O)O)C(=O)N[C@@H](Cc1ccccc1)C(=O)N[C@@H](CC(C)C)C(=O)N[C@@H](CCCN=C(N)N)C(=O)O` [KRIVQAIKDFLR], for which the MIC was not below 40 µM in experiment [2], 40 µM (≈ 59.5 µg/mL) in [3], 40 µM (≈ 59.5 µg/mL) in [4] and 40 µM (≈ 59.5 µg/mL) in experiment [5].

For `CC[C@H](C)[C@H](NC(=O)[C@H](CCCN=C(N)N)NC(=O)[C@@H](NC(=O)[C@H](CCCN=C(N)N)NC(=O)[C@H](CCC(N)=O)NC(=O)[C@H](Cc1cnc[nH]1)NC(=O)[C@@H](NC(=O)[C@H](CCCN=C(N)N)NC(=O)[C@H](CCCN=C(N)N)NC(=O)[C@H](CCCCN)NC(=O)[C@H](CCCN=C(N)N)NC(=O)[C@H](CCCCN)NC(=O)[C@H](CO)NC(=O)[C@H](CCCN=C(N)N)NC(=O)[C@@H](N)CCCCN)[C@@H](C)CC)C(C)C)C(=O)N[C@@H](CO)C(=O)O` [KRSKRKRRIHQRVRIS], the MIC (in [3]; with Escherichia coli) was more than 23.8 µM in each case.

Compound `CC[C@H](C)[C@H](NC(=O)[C@H](Cc1ccccc1)NC(=O)[C@H](CO)NC(=O)[C@H](CCCCN)NC(=O)[C@H](Cc1c[nH]c2ccccc12)NC(=O)[C@@H](N)CCCCN)C(=O)N[C@@H](CCCCN)C(=O)N[C@@H](CCCCN)C(=O)N[C@@H](CC(C)C)C(=O)N[C@H](C(=O)N[C@@H](CO)C(=O)N[C@@H](CCCCN)C(=O)N[C@@H](Cc1ccccc1)C(=O)N[C@@H](CC(C)C)C(=O)N[C@@H](Cc1cnc[nH]1)C(=O)N[C@@H](CO)C(=O)N[C@@H](CCCCN)C(=O)N[C@@H](CCCCN)C(=O)N[C@@H](CCCCN)C(=O)N[C@@H](Cc1ccccc1)C(N)=O)[C@@H](C)O` [KWKSFIKKLTSKFLHSKKKF] displayed an MIC against Pseudomonas aeruginosa of 4.98 µM (≈ 12.5 µg/mL). This lies in the single-digit micromolar range.

In the case of `CC[C@H](C)[C@H](NC(=O)[C@H](Cc1c[nH]c2ccccc12)NC(=O)[C@H](CCCCN)NC(=O)[C@@H](NC(=O)[C@H](CC(C)C)NC(=O)[C@H](CCCCN)NC(=O)CNC(=O)[C@@H](NC(=O)[C@@H](NC(=O)[C@H](CO)NC(=O)[C@@H](NC(=O)[C@@H](NC(=O)[C@H](CCCCN)NC(=O)[C@H](CCC(N)=O)NC(=O)[C@H](C)NC(=O)[C@@H](N)CCSC)[C@@H](C)CC)[C@@H](C)CC)[C@@H](C)O)[C@@H](C)CC)C(C)C)C(=O)N[C@H](C(=O)N[C@@H](CCCCN)C(=O)N[C@H](C(=O)N[C@H](C(=O)N[C@@H](CC(N)=O)C(=O)N[C@@H](CCCCN)C(=O)N[C@@H](Cc1ccccc1)C(=O)N[C@H](C(=O)N[C@@H](CCCCN)C(=O)N[C@@H](CCCCN)C(=O)O)[C@@H](C)O)C(C)C)[C@@H](C)O)[C@@H](C)CC` [MAQKIISTIGKLVKWIIKTVNKFTKK], the values for the MIC in the experiment on Escherichia coli and with Staphylococcus aureus were 3.8 µM (≈ 11.5 µg/mL) and 20 µM (≈ 60.4 µg/mL), respectively.

In the case of `CC[C@H](C)[C@H](NC(=O)[C@H](CCCN=C(N)N)NC(=O)[C@H](CCC(=O)O)NC(=O)[C@H](CCCCN)NC(=O)[C@H](CCC(=O)O)NC(=O)[C@H](CCCCN)NC(=O)[C@H](CO)NC(=O)[C@H](CC(C)C)NC(=O)[C@@H](N)[C@@H](C)O)C(=O)N[C@H](C(=O)N[C@@H](CCC(N)=O)C(=O)N[C@@H](CCCN=C(N)N)C(=O)N[C@H](C(=O)N[C@@H](CCCN=C(N)N)C(=O)N[C@H](C(=O)N[C@@H](CO)C(=O)O)[C@@H](C)O)C(C)C)C(C)C` [TLSKEKERIVQRVRTS], the MIC (in experiment [3]; in the experiment with Escherichia coli) was more than 25.9 µM each time.
